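Tested at 5 concentrations; 48 h exposure; 96-well plates; endpoints linearly interpolated, else capped at highest concentration. The concentration for full growth arrest is given as TGI.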
Legend:
Test in all cases: NCI tumour cell line growth inhibition, 48 h
MDA-MB-231 breast = system: MDA-MB-231 breast
OVCAR-5 ovarian = system: OVCAR-5 ovarian
ACHN renal = system: ACHN renal
PC-3 prostate = system: PC-3 prostate
SK-OV-3 ovarian = system: SK-OV-3 ovarian
SN12C renal = system: SN12C renal
HCC-2998 colon = system: HCC-2998 colon
SNB-19 CNS = system: SNB-19 CNS
EKVX NSCLC = system: EKVX NSCLC
MCF7 breast = system: MCF7 breast
SF-295 CNS = system: SF-295 CNS
T-47D breast = system: T-47D breast
CCRF-CEM leukemia = system: CCRF-CEM leukemia
OVCAR-4 ovarian = system: OVCAR-4 ovarian
MOLT-4 leukemia = system: MOLT-4 leukemia
HCT-116 colon = system: HCT-116 colon
A549 NSCLC = system: A549 NSCLC
SK-MEL-5 melanoma = system: SK-MEL-5 melanoma
NCI-H226 lung = system: NCI-H226 lung
A498 renal = system: A498 renal
UO-31 renal = system: UO-31 renal
SK-MEL-28 melanoma = system: SK-MEL-28 melanoma
COLO 205 colon = system: COLO 205 colon
SF-539 CNS = system: SF-539 CNS
SF-268 CNS = system: SF-268 CNS
HL-60(TB) leukemia = system: HL-60(TB) leukemia
SW-620 colon = system: SW-620 colon
NCI-H460 lung = system: NCI-H460 lung
IGROV1 ovarian = system: IGROV1 ovarian
NCI-H522 lung = system: NCI-H522 lung
M14 melanoma = system: M14 melanoma
786-0 renal = system: 786-0 renal
HS 578T breast = system: HS 578T breast
MDA-N = system: MDA-N
KM12 colon = system: KM12 colon
NCI-H23 lung = system: NCI-H23 lung
HCT-15 colon = system: HCT-15 colon
UACC-62 melanoma = system: UACC-62 melanoma
BT-549 breast = system: BT-549 breast
DU-145 prostate = system: DU-145 prostate
MALME-3M melanoma = system: MALME-3M melanoma
HT29 colon = system: HT29 colon
OVCAR-8 ovarian = system: OVCAR-8 ovarian
UACC-257 melanoma = system: UACC-257 melanoma
OVCAR-3 ovarian = system: OVCAR-3 ovarian
K-562 leukemia = system: K-562 leukemia
NCI/ADR-RES ovarian = system: NCI/ADR-RES ovarian
HOP-62 NSCLC = system: HOP-62 NSCLC
U251 CNS = system: U251 CNS
CAKI-1 renal = system: CAKI-1 renal

**Q.** How did the TGI (MDA-MB-231 breast) turn out when `COC(=O)c1c(O)c2c(c3c1OC(C)(C)CC3)OC(C)(C)CC2` was run?
**A.** The TGI was 30 µM.

**Q.** And the TGI (OVCAR-5 ovarian)?
**A.** The TGI was 35.2 µM.

**Q.** What about the TGI (ACHN renal) of the same compound?
**A.** Its TGI is 32.3 µM.

**Q.** And the TGI (PC-3 prostate)?
**A.** The TGI was 35.7 µM.

**Q.** And the TGI (SK-OV-3 ovarian)?
**A.** The TGI was 77.1 µM.

**Q.** What about the TGI (SN12C renal) of the same compound?
**A.** The TGI was 32.6 µM.

**Q.** What about the TGI (HCC-2998 colon) of the same compound?
**A.** The TGI was 31.2 µM.

**Q.** What about the TGI (SNB-19 CNS) of the same compound?
**A.** Its TGI is 34.9 µM.

**Q.** What about the TGI (EKVX NSCLC) of the same compound?
**A.** Its TGI is 45.8 µM.

**Q.** And the TGI (MCF7 breast)?
**A.** The TGI was 33.1 µM.

**Q.** And the TGI (SF-295 CNS)?
**A.** The TGI was 32.2 µM.

**Q.** What about the TGI (T-47D breast) of the same compound?
**A.** Its TGI is 39.5 µM.

**Q.** And the TGI (CCRF-CEM leukemia)?
**A.** Its TGI is 55.6 µM.

**Q.** And the TGI (OVCAR-4 ovarian)?
**A.** Its TGI is 97.7 µM.

**Q.** What about the TGI (MOLT-4 leukemia) of the same compound?
**A.** Its TGI is 56.1 µM.

**Q.** What about the TGI (HCT-116 colon) of the same compound?
**A.** The TGI was 30.4 µM.

**Q.** What about the TGI (A549 NSCLC) of the same compound?
**A.** Its TGI is 42.7 µM.

**Q.** And the TGI (SK-MEL-5 melanoma)?
**A.** Its TGI is 28.2 µM.

**Q.** And the TGI (NCI-H226 lung)?
**A.** The TGI was 35.9 µM.

**Q.** And the TGI (A498 renal)?
**A.** Its TGI is 34.4 µM.

**Q.** And the TGI (UO-31 renal)?
**A.** The TGI was 37.4 µM.

**Q.** What about the TGI (SK-MEL-28 melanoma) of the same compound?
**A.** Its TGI is 68.8 µM.

**Q.** What about the TGI (COLO 205 colon) of the same compound?
**A.** The TGI was 28.2 µM.

**Q.** And the TGI (SF-539 CNS)?
**A.** Its TGI is 36 µM.

**Q.** And the TGI (SF-268 CNS)?
**A.** The TGI was 60.7 µM.

**Q.** And the TGI (HL-60(TB) leukemia)?
**A.** The TGI was 40.3 µM.

**Q.** What about the TGI (SW-620 colon) of the same compound?
**A.** The TGI was 32.1 µM.

**Q.** And the TGI (NCI-H460 lung)?
**A.** Its TGI is 50.6 µM.

**Q.** What about the TGI (IGROV1 ovarian) of the same compound?
**A.** Its TGI is 42.8 µM.

**Q.** And the TGI (NCI-H522 lung)?
**A.** The TGI was 34.2 µM.

**Q.** And the TGI (M14 melanoma)?
**A.** The TGI was 41 µM.

**Q.** And the TGI (786-0 renal)?
**A.** The TGI was 31.1 µM.

**Q.** What about the TGI (HS 578T breast) of the same compound?
**A.** Its TGI is 47.2 µM.

**Q.** And the TGI (MDA-N)?
**A.** Its TGI is 51.9 µM.

**Q.** What about the TGI (KM12 colon) of the same compound?
**A.** Its TGI is 31.6 µM.

**Q.** What about the TGI (NCI-H23 lung) of the same compound?
**A.** The TGI was 43.4 µM.

**Q.** And the TGI (HCT-15 colon)?
**A.** The TGI was 35.5 µM.

**Q.** What about the TGI (UACC-62 melanoma) of the same compound?
**A.** Its TGI is 40 µM.

**Q.** What about the TGI (BT-549 breast) of the same compound?
**A.** The TGI was 37.2 µM.

**Q.** What about the TGI (DU-145 prostate) of the same compound?
**A.** The TGI was 74.7 µM.

**Q.** What about the TGI (MALME-3M melanoma) of the same compound?
**A.** The TGI was 20.9 µM.

**Q.** What about the TGI (HT29 colon) of the same compound?
**A.** Its TGI is 31.4 µM.

**Q.** And the TGI (OVCAR-8 ovarian)?
**A.** The TGI was 33.3 µM.

**Q.** What about the TGI (UACC-257 melanoma) of the same compound?
**A.** Its TGI is 50.8 µM.

**Q.** And the TGI (OVCAR-3 ovarian)?
**A.** Its TGI is 36.3 µM.

**Q.** And the TGI (K-562 leukemia)?
**A.** The TGI was 69.8 µM.

**Q.** And the TGI (NCI/ADR-RES ovarian)?
**A.** The TGI was 56.2 µM.

**Q.** What about the TGI (HOP-62 NSCLC) of the same compound?
**A.** The TGI was 42.7 µM.

**Q.** And the TGI (U251 CNS)?
**A.** Its TGI is 29.6 µM.

**Q.** What about the TGI (CAKI-1 renal) of the same compound?
**A.** Its TGI is 53.9 µM.

Reference: PubChem BioAssay (NCI)
